Consider one molecule from paper PMC5527310, “Stringent Expression Control of Pathogenic R-body Production in Legume Symbiont Azorhizobium caulinodans” (mBio, 2017).

The test deals with T1, His6-PraR (Azorhizobium caulinodans, UniProt A8IG10).
T1 construct: full praR ORF, N-terminal His6 tag (pCold I, plasmid pTAC99), expressed in E. coli BLR(DE3), Ni-bead purified
Kind of test: EMSA, FITC-labelled reb promoter dsDNA probe. Particulars: inhibits PraR binding to reb promoter DNA; 2OG 0.01 to 10 mM; pH 8.0, 5 mM MgCl2, 26 °C; direct 2OG binding to PraR not measured. (In general: A gel shift assay detects complexes by their altered migration in electrophoresis.)

T1 sequence (A8IG10 entry or part of it): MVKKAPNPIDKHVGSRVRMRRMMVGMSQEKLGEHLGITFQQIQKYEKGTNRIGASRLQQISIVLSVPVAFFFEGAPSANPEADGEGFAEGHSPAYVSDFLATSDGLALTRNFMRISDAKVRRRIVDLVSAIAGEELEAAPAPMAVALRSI

As to `O=C(O)CCC(=O)C(=O)O` [2-oxoglutarate], the “EMSA, FITC-labelled reb promoter dsDNA probe” value was “binding of PraR to the reb promoter dsDNA probe decreased with increasing 2OG concentration”.
